We go through nine substances from publication PMC4210869, “Functional Phylogenetics Reveals Contributions of Pleiotropic Peptide Action to Ligand-Receptor Coevolution” (Scientific Reports, 2014).

What all share (format): cell-based
The target in one assay is T1, TcPKr-C (Tribolium castaneum, UniProt A0ACM8QKC4).
T1 sequence (A0ACM8QKC4 1-483): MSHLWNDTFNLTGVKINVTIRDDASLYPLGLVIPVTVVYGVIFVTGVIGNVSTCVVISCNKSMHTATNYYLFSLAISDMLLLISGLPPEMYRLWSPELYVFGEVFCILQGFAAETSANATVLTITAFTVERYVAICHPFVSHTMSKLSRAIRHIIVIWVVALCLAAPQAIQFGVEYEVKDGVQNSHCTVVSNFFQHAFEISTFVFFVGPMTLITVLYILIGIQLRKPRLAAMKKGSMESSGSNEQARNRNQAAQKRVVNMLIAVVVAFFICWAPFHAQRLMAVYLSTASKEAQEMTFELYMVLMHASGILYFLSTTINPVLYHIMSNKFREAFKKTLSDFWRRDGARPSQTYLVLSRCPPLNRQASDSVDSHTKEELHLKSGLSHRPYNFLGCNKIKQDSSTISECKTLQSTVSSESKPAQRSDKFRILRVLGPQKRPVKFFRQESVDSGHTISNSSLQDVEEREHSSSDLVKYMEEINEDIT
In words: Aequorin luminescence (calcium mobilization) assay, CHO cells transiently expressing TcPKr-C. Conditions: for Receptor activation, in words: text summary of dose-response data. As to the method: (§1) We characterized all PRXamide GPCRs through assays of 9 endogenous ligands. Ligand activities were quantified by detection of luminescence responses from CHO cells transiently transfected with GPCR (see Methods and Materials section for details). Dose-response curves were generated by logistic fitting of the log transformed ligand concentrations ranging from 0.01 nM to 10 μM (Fig. 3). All results, shown as averages, were replicated in three independent experiments (see Supplementary Data 1 for details).
(§2) T. castaneum was kept in a 30°C growth chamber under a 16 : 8 (L : D) photoperiod and fed on a diet of wheat flour and Brewer's yeast (10 : 1). Peptides from T. castaneum were synthesized by Genescript (Piscataway, NJ). For culture of Chinese Hamster Ovary cells (CHO), DMEM/F12 medium, fetal bovine serum (FBS), Fungizone and Penicillin/Streptomycin, and coelenterazine for aequorin functional assay were purchased from Gibco cell culture at Life Technologies^TM (Grand Island, NY). TransIT-LT1 Transfection Reagent (Mirus Bio LLC, Madison, WI) was used for transient transfections. […]
(§3) cDNAs for full GPCR ORFs were inserted into the expression vector pcDNA3.1(+) (Invitrogen) or pcDNA5/FRT (Invitrogen). Methods for expression in Chinese Hamster Ovary (CHO) cell supplemented with aequorin and G-α16 and the assays were performed as previously described. Briefly, cells were transfected using the TransIT-LT1 transfection reagent (Mirus Bio LLC). Thirty hours after the transfection, the cells were collected and preincubated with the coelenterazine (Invitrogen) prior to the functional assay. A serial dilution (10 folds) of the 9 endogenous ligands were applied to the cells. The luminescence caused by the intracellular calcium mobilization were measured in continuous 20 seconds in every half-second interval. […] Based on which, a dose response curve was generated for each receptor by logistic fitting in Origin 8.6 (OriginLab).

The target in another assay is T2, TcPKr-B (Tribolium castaneum, UniProt A0A0A7H8P0).
T2 sequence (A0A0A7H8P0 1-560): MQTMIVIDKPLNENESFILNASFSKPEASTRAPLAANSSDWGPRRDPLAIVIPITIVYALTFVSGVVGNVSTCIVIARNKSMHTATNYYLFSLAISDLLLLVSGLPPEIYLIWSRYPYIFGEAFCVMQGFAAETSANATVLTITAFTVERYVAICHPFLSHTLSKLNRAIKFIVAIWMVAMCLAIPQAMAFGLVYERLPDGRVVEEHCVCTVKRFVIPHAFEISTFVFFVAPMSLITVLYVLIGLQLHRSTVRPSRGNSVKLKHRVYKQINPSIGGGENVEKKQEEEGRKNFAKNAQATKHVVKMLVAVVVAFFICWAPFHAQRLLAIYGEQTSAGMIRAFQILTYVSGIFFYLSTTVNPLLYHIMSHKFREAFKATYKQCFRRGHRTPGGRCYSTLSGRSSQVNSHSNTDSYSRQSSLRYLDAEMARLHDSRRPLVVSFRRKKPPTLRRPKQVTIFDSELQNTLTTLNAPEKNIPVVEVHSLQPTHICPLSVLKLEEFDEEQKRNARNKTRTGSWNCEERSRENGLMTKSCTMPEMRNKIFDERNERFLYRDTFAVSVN
In words: Aequorin luminescence (calcium mobilization) assay, CHO cells transiently expressing TcPKr-B. As to the method:
as §1, §2, §3
In general terms: Calcium flux is commonly read through the fluorescence of an indicator in the cells.

In a further assay the target is T3, TcPKr-A (Tribolium castaneum, UniProt A0ACM8QKC5).
T3 sequence (A0ACM8QKC5 1-530): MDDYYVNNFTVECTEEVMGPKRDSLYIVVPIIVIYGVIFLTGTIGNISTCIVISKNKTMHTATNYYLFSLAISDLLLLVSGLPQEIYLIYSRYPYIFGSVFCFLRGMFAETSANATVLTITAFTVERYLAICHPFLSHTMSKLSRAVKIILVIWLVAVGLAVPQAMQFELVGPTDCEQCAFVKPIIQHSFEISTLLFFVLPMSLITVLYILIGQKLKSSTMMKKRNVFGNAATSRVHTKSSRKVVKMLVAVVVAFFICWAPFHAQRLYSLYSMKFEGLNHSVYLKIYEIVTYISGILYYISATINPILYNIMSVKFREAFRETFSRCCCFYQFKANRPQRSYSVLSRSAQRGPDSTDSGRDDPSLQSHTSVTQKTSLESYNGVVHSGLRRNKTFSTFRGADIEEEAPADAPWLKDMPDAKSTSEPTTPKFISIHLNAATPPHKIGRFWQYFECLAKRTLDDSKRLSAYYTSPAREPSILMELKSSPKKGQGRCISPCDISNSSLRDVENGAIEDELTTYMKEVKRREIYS
As to the kind of experiment: Aequorin luminescence (calcium mobilization) assay, CHO cells transiently expressing TcPKr-A. As to the method:
as §1, §2, §3

The target in another assay is T4, TcCAPAr (Tribolium castaneum, UniProt A0A0A7H7W3).
T4 sequence (A0A0A7H7W3 1-418): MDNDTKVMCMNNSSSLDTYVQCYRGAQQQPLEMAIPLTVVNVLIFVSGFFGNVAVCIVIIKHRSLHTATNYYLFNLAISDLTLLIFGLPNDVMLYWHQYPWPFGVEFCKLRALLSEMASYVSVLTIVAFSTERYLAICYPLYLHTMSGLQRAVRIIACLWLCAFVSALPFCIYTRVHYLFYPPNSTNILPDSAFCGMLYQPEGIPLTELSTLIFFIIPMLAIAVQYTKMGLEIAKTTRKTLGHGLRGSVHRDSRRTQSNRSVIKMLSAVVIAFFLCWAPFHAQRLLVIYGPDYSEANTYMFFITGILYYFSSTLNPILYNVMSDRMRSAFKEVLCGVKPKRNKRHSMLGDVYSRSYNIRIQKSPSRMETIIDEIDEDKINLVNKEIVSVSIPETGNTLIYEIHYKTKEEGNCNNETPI
In words: Aequorin luminescence (calcium mobilization) assay, CHO cells transiently expressing TcCAPAr. The protocol:
as §1, §2, §3

Setting [1] is: EC50 (bound given in μM), Fig. 3, above highest tested concentration 10 μM.
The mark [2] stands for this setting: Supplementary data 1, fitted value incl. extrapolations beyond 10 μM, unit inferred, nM by Fig. 3, read-out: EC50s.
The mark [3] stands for this setting: EC50 [nM], Fig. 3, CHO cells with aequorin and G-α16, logistic fit, ligand 0.01 nM to 10 μM, average of three independent experiments.

Where two headings read alike, the source gives them in different places. Where no end group is shown, it is not given here.

Consider ENYVLKAAKNVPRI-NH2 [ETH-1], for which the EC50 at TcPKr-C (setting [1]) was more than 10 µM; at TcPKr-B (setting [1]), more than 10 µM; on TcPKr-B (setting [2]), 120 µM; on TcPKr-A (setting [2]), 9840 nM; at TcCAPAr (setting [2]), 150 nM.

As for FFMKASKSVPRI-NH2 [ETH-2], the EC50 is more than 10 µM on TcPKr-C (setting [1]); 502 µM on TcPKr-C (setting [2]); more than 10 µM at TcPKr-B (setting [1]); 21.8 µM at TcPKr-B (setting [2]); 6300 nM at TcPKr-A (setting [2]); 88.8 nM at TcCAPAr (setting [2]).

In the case of HSSPFSPRL-NH2 [PK2/PBAN-3], the EC50 at TcPKr-C (setting [2]) is 0.001 µM; on TcPKr-B (setting [2]), 0.0287 µM; at TcPKr-A (setting [2]), 7.7 nM; at TcCAPAr (setting [1]) it was more than 10000 nM; on TcCAPAr (setting [2]), 36600 nM.

In the case of HVVNFTPRL-NH2 [PK2/PBAN-1], the EC50 was 0.0014 µM at TcPKr-C (setting [2]); 0.0119 µM on TcPKr-B (setting [2]); 21 nM at TcPKr-A (setting [2]); more than 10000 nM at TcCAPAr (setting [1]); 16100 nM at TcCAPAr (setting [2]).

As to NKLASVYALTPSLRV-NH2 [CAPA-1], the EC50 was more than 10 µM at TcPKr-C (setting [1]); more than 10 µM at TcPKr-B (setting [1]); 338 µM on TcPKr-B (setting [2]); more than 10000 nM on TcPKr-A (setting [1]); 30700 nM on TcPKr-A (setting [2]); 3.7 nM at TcCAPAr.

On to PGANSGGMWFGPRL-NH2 [PK1/DH-1], for which the EC50 at TcPKr-C (setting [1]) is more than 10 µM; at TcPKr-B (setting [2]), 0.161 µM; at TcPKr-A (setting [2]) it was 6.2 nM; on TcCAPAr (setting [3]) it was 6970 nM; at TcCAPAr (setting [2]), 1070 nM. At TcPKr-C, the “Receptor activation, in words” value is on record as “not”.

On to RIGKMVSFPRI-NH2 [CAPA-2], for which the EC50 at TcPKr-C (setting [1]) was more than 10 µM; at TcPKr-B (setting [1]), more than 10 µM; on TcPKr-B (setting [2]), 62.5 µM; on TcPKr-A (setting [1]), more than 10000 nM; on TcPKr-A (setting [2]), 12800 nM; at TcCAPAr (setting [2]) it was 5.8 nM.

As for SPPFAPRL-NH2 [PK2/PBAN-2], the EC50 at TcPKr-C (setting [2]) was 0.013 µM; at TcPKr-B (setting [2]), 0.0032 µM; on TcPKr-A (setting [2]), 17.5 nM; at TcCAPAr (setting [3]), 1070 nM; at TcCAPAr (setting [2]) it was 6970 nM.

Take “TPHESSVPNERNDDSKETYFWFGPRL-NH2 [PK1/DH-2]”: the EC50 on TcPKr-C (setting [2]) was 0.576 µM; at TcPKr-B (setting [2]), 0.0658 µM; on TcPKr-A (setting [2]), 92.6 nM; at TcCAPAr (setting [2]), 1070 nM. Also, the “Receptor activation, in words” value on TcPKr-C is listed as “activated by high concentrations”.
